Laboratory results taken from patent EP3866826B1, “ANTIMICROBIAL PEPTIDES AND METHODS OF USING THE SAME” (priority 2018, dated 2020).
Where no end group is shown, it is not given here.

How the values were obtained:
C. albicans (ATCC 44858) = assay: Vaginal infection rodent model of vulvovaginal candidiasis, fungal counts (FIG. 8); assay type: in vivo; settings: rats, 20 mg/mL IVG at 0.1 mL/rat twice daily for 3 days from 48 hr after infection, CFUs on Day 5 (p < 0.0001)
Protocol: FIG. 8A to 8B. RP557 topical treatment reduces rodent vaginal candidiasis. Effects of RP557, miconazole and oral fluconazole in the C. albicans (ATCC 44858) vaginal infection rodent model. On Day 0, rats were inoculated intravaginally (IVG) with C. albicans at 1.46 x 10^7 CFU/rat. RP557 and miconazole at 20 mg/mL were administered IVG at 0.1 mL/rat twice daily at 8 hr intervals starting from 48 hr after infection for 3 days. CFUs were evaluated on Day 5 with limit of detection (LOD) 0.7 CFU/rat. Significant difference, compared to vehicle, determined by one-way ANOVA followed by Dunnett's test (*p < 0.05, ****p < 0.0001). A separate group receiving oral fluconazole; *p < 0.05 versus 0.1 and 10 mg/kg fluconazole.

Candida 17-88 biofilm = assay: Inhibition of preformed biofilm, metabolic evaluation using XTT (FIG. 5); assay type: cell-based, Candida albicans; settings: added to preformed Candida 17-88 biofilm for 24 hours
Protocol: Fluconazole or RP557 were added to preformed Candida 17-88 biofilm for 24 hours and biofilm inhibition evaluated via metabolic evaluation using XTT, 2,3-bis (2-methoxy-4-nitro-5-sulfophenyl) [phenyl-amino)carbonyl]-2H. Data represent the mean±SD of triplicate measurements and statistical significance, compared to vehicle control, determined by one-way ANOVA followed by Dunnett's test (*p < 0.05, **p < 0.01, and ***p < 0.001).

[1] = test system: P. aeruginosa (porcine isolate); assay: Polymicrobial infected full-thickness thermal porcine burn model, bacterial counts (FIG. 6A); assay type: in vivo; settings: pig, single dose, 2% RP557 (p<0.0001), sampled after 24 hours
Protocol: (§1) From the in vitro screening assays three AMPs were selected for further evaluation in a qualified porcine burn wound model infected with P. aeruginosa and S. aureus. Full thickness wounds were created with heated brass rod and 2cm trephine: approximately 10 minutes after homeostasis, wounds were infected with a 2:2:1 mixture of S. aureus, P. aeruginosa and Fuscobacterium ssp. Treatment of infected wounds began 24 hours post infection to allow for biofilm formation.
(§2) Full thickness wounds were created with a heated brass rod and a trephine on the back of anesthetized pigs followed by infection with 2:2:1 mixture of S. aureus ATCC 6538 (FIG. 6B) and P. aeruginosa (porcine isolate) (FIG. 6A) and fusobacterium ssp. After 3 hours, 0, 0.1, 0.2, 1 or 2% RP557 were applied. After 24 hours, wounds were sampled by punch biopsy and bacterial counts, expressed as log (Colony Forming Units, CFUs/g) evaluated. Data is expressed as mean±SE of 8 replicates. Statistical significance, compared to vehicle, determined by one-way ANOVA followed by Dunnett's test (**p < 0.01, ****p < 0.0001).

[2] = test system: gram-negative bacteria; A. baumannii and P. aeruginosa; gram-positive bacteria, S. aureus and MRSA and fungal strains; C. albicans, C. parapsilosis, C. krusei …; assay: Antimicrobial activity against multiple clinical isolates of bacteria and fungal strains; assay type: cell-based
Protocol: Thirty-four AMPs were synthesized and evaluated in three iterative rounds. Each AMP was evaluated for antimicrobial potency against 11 strains of bacteria, 7 strains of fungi and their cytotoxicity determined using L929 fibroblasts and human keratinocytes. The AMPs were evaluated for biofilm eradication and ability to induce antimicrobial resistance.

S. aureus 29213 = assay: Resistance development by serial passage at sub-inhibitory concentrations, 30 passages (FIG. 4); assay type: cell-based
Protocol: (§3) FIG. 4A to 4B. […] Sub-inhibitory concentrations of RP557, gentamicin and clindamycin were incubated with P. aeruginosa 27853 and S. aureus 29213 for 24 hours. Bacteria showing growth in the highest concentration were re-passaged in fresh dilutions containing sub-minimum inhibitory concentration (MIC) levels of each component for 30 consecutive passages; means are shown.

P. aeruginosa 27853 = assay: as above; assay type: cell-based
Protocol: as §3

[3] = Physiochemical properties of RP557 (hydrophilicity, solubility, pH stability); assay type: physicochemical; settings: extremes of pH (<4)
Protocol: (§4) Exemplary AMP RP557 was prepared in one gram lots at 98% purity or better. […] Furthermore, advances in solid and solution phase peptide chemistry has enabled Good Manufacturing Practice (GMP) material to be produced rapidly, economically in high yield and purity.

[4] = Stability in serum, monitored via LC-MS/MS; assay type: in vitro ADME; settings: human serum for 72 hrs at 37°C monitored via LC-MS/MS
Protocol: as §4

L929 fibroblast cells = assay: Cytotoxicity to mammalian cells, cell viability (FIG. 3C); assay type: cell-based
Protocol: The rapid destruction of pathogenic cells by potent broad-spectrum topical anti-infectives infer a theoretical reduced likelihood of developing bacterial resistance. […] Cell viability was performed using bioluminescent strains of P. aeruginosa 19660 (FIG. 3A), S. aureus 49525 (FIG. 3B) & L929 fibroblast cells (FIG. 3C) and imaged with the IVIS Lumina system. Data represents the mean of 3 measurements.

[5] = test system: S. aureus, P. aeruginosa and Fuscobacterium ssp.; assay: Pharmacodynamic response in biofilm associated wounds, CFU counts of punch biopsies (FIG. 7); assay type: in vivo; settings: 2% RP557 applied 24 hours post inoculation; biopsies at 30 min, 180 min and 24 hours post treatment
Protocol: as §1
FIG. 7A-7B Pharmacodynamic Response to RP557. Twenty four hours post bacterial inoculation biofilm associated wounds were treated with 2% RP557. Punch biopsies were taken at 30 min, 180 min and 24 hours post treatment, homogenized, plated and CFUs counted. Statistical significance was calculated using the Holm-Sidak method. *p<0.05, ***p<0.001, ****p<0.0001, dAMP vs Control.

S. aureus ATCC 6538 = assay: Polymicrobial infected full-thickness thermal porcine burn model, bacterial counts (FIG. 6B); assay type: in vivo; settings: pig, single topical application, sampled after 24 hours
Protocol: as §1, §2

RFCWKVCYKGICFKKCK (disulfide (positions not given here)) [RP557, 17 amino acids, hairpin structure formed by two disulfide bonds]
fungal counts relative to the vehicle control group (C. albicans (ATCC 44858)): significant reductions | biofilm inhibition (Candida 17-88 biofilm): potent inhibitor | number of viable P. aeruginosa bacteria [1]: 1.96±1.64 log CFU/g tissue | antimicrobial activity [2]: broad-spectrum antimicrobial activity | susceptibility of the resistant strain at the end of 30 serial passages (cross resistance) (S. aureus 29213; clindamycin-resistant S. aureus): readily susceptible | development of resistance (S. aureus 29213; sub-inhibitory concentrations, 30 consecutive passages, S. aureus 29213): did not develop resistance | susceptibility of the resistant strain at the end of 30 serial passages (cross resistance) (P. aeruginosa 27853; gentamicin-resistant P. aeruginosa): readily susceptible | development of resistance (P. aeruginosa 27853; sub-inhibitory concentrations, 30 consecutive passages, P. aeruginosa 27853): did not develop resistance | stability at extremes of pH [3]: stable | stability in serum [4]: stable in serum | cytotoxicity to mammalian cells (L929 fibroblast cells): not cytotoxic | pharmacodynamic response, CFUs in wounds [5]: Kills Infection Throughout a 24 Hour Period | S. aureus CFU counts (S. aureus ATCC 6538; 0.2% RP557 (p < 0.01)): 2.11±1.75 log CFU/g tissue | S. aureus CFU counts (S. aureus ATCC 6538; 1% RP557 (p < 0.0001)): 1.46±2.05 log CFU/g tissue
